Results: patent publication US8361962B2, “Tricyclic inhibitors of JAK” (Roche Palo Alto LLC, priority 2009, dated 2013)

Each compound was assayed against T1, h-jak3 (JAK3: Recombinant human kinase domain) (Homo sapiens, UniProt P52333) (assay: Determination of IC50 of Janus Kinase (JAK) inhibition, radioactive end-point 33P-ATP assay, JAK3).
T1 construct: JAK3: Recombinant human kinase domain from Millipore (Cat # 14-629); purchased Millipore 14-629
T1 sequence (P52333 822-1111 limits assumed): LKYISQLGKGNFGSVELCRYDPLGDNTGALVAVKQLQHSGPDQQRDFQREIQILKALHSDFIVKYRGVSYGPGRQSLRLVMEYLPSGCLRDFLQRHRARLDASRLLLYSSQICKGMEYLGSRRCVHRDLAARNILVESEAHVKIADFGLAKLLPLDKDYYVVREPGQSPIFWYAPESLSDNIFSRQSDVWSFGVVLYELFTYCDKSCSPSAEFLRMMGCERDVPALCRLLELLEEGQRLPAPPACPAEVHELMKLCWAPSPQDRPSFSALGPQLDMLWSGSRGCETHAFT
Type: biochemical
Description: Determination of IC50 of Janus Kinase (JAK) Inhibition:
Enzymes and peptide substrate used are described below: • JAK1: Recombinant human kinase domain from Invitrogen (Cat # PV4774) • JAK3: Recombinant human kinase domain from Millipore (Cat # 14-629) • JAK2: Recombinant human kinase domain from Millipore (Cat # 14-640) • Substrate: N-terminally biotinylated 14-mer peptide derived from activation loop of JAK1 with sequence of the peptide substrate: Biotin-KAIETDKEYYTVKD (SEQ ID NO: 1)
Assay conditions used are described below: • Assay Buffer: JAK Kinase Buffer: 50 mM Hepes [pH 7.2], 10 mM MgCl2, 1 mM DTT, 1 mg/ml BSA. The assay is carried out in this buffer. • Assay Format: The kinase activity of all three JAK kinases is measured using a radioactive, end-point assay and with trace amounts of ^33P-ATP. The assays are carried out in 96-well polypropylene plates. Experimental Method:
All concentrations are final in the reaction mixture and all incubations are carried at room temperature. Assay steps are described below: • Compounds are serially diluted in 100% DMSO typically at a 10× starting concentration of 1 mM. Final concentration of DMSO in the reaction is 10%. • Compounds are preincubated with enzyme (0.5 nM JAK3, 1 nM JAK2, 5 nM JAK1) for 10 minutes. • Reactions are initiated by the addition of a cocktail of the two substrates (ATP and peptide premixed in the JAK Kinase Buffer). In the JAK2/JAK3 assays, ATP and the peptide are used at concentrations of 1.5 uM and 50 uM, respectively. JAK1 assay is carried out at an ATP concentration of 10 uM and a peptide concentration of 50 uM. The duration of the assay for JAK2 and JAK3 is 20 minutes. JAK1 assay is carried out for 40 minutes. With all three enzymes, reactions are terminated by the addition of 0.5M EDTA to a final concentration of 100 mM. • 25 ul of terminated reactions are transferred to 150 ul of a 7.5% (v/v) slurry of streptavidin-coated sepharose beads in MgCl2- and CaCl2-free 1× Phosphate Buffered Saline containing 50 mM of EDTA in 96-well, 1.2 um MultiScreen-BV filter plates. After a 30-minute incubation, the beads are washed under vacuum with the following buffers: • 3 to 4 washes with 200 ul of 2M NaCl. • 3 to 4 washes with 200 ul of 2M NaCl plus 1% (v/v) phosphoric acid. • 1 wash with water. • Washed plates are dried in a 60° C. oven for between 1 to 2 hours. • 70 ul of Microscint 20 scintillation fluid is added to each well of filter plates and after at least 30 minutes of incubation, radioactive counts are measured in a Perkin Elmer microplate scintillation counter.
`C[C@H]1CCN(C(=O)CC#N)C[C@H]1c1nnc2cnc3[nH]ccc3n12` [Compound I-9, 3-[(3S,4S)-4-Methyl-3-(6H-2,3,5,6,8b-pentaaza-as-indacen-1-yl)-piperidin-1-yl]-3-oxo-propionitrile] was tested, and the IC50 was 25 nM and the Ki was 12.8 nM. Compound `CCS(=O)(=O)N1CC[C@H](C)[C@H](c2ccc3cnc4[nH]ccc4n23)C1` [Compound I-4, 8-((3S,4S)-1-Ethanesulfonyl-4-methyl-piperidin-3-yl)-3H-3,4,8a-triaza-as-indacene] has a Ki of 0.964 nM. For `c1cc2c(ncc3nnc(C4CCCCC4)n32)[nH]1` [Compound I-8, 1-Cyclohexyl-6H-2,3,5,6,8b-pentaaza-as-indacene], the IC50 was 449 nM and the Ki was 225 nM. `CC1CCCCN1c1ccc2cnc3[nH]ccc3n12` (centres unmarked) [Compound I-3, 8-(2-Methyl-piperidin-1-yl)-3H-3,4,8a-triaza-as-indacene] gave an IC50 of 39.9 nM and a Ki of 20.5 nM. With `C[C@H]1CCCC[C@H]1c1nnc2cnc3[nH]ccc3n12` [Compound I-6, 1-((1R,2S)-2-Methyl-cyclohexyl)-6H-2,3,5,6,8b-pentaaza-as-indacene] the IC50 was 69.3 nM and the Ki was 35.5 nM. Compound `CCS(=O)(=O)N1CCC(C)[C@H](c2ccc3cnc4[nH]ccc4n23)C1` (stereo in doubt) [Compound I-5, 8-((3S,4S)-1-Ethanesulfonyl-4-methyl-piperidin-3-yl)-3H-3,4,8a-triaza-as-indacene] has an IC50 of 203 nM and a Ki of 119 nM. Compound `c1cc2c(ncc3cnc(C4CCCCC4)n32)[nH]1` [Compound I-10, 1-Cyclohexyl-6H-2,5,6,8b-tetraaza-as-indacene] has an IC50 of 93 nM and a Ki of 47.7 nM. Compound `c1cc2c(ncc3ccc(C4CCCCC4)n32)[nH]1` [Compound I-2, 8-Cyclohexyl-3H-3,4,8a-triaza-as-indacene] has an IC50 of 20.2 nM and a Ki of 10.4 nM. `CCS(=O)(=O)N1CC[C@@H](C)[C@@H](c2nnc3cnc4[nH]ccc4n23)C1` [Compound I-7, 1-((3R,4R)-1-Ethanesulfonyl-4-methyl-piperidin-3-yl)-6H-2,3,5,6,8b-pentaaza-as-indacene] showed an IC50 of 231 nM and a Ki of 103 nM.
